Data reported in patent publication US20220062205A1, “TREATMENT OF GASTROINTESTINAL DISORDERS AND SYMPTOMS THEREOF” (Indiana University Research and Technology Corporation, priority 2018, published 2022).

How the values were obtained:
Winnie mice [1] = assay: Immunohistochemistry and histology of distal colon (cross sections and LMMP); assay type: in vivo, mouse
Description: The small molecular APE1/Ref-1 antagonist; APX3330, was administered via IP injections in Winnie mice at a dose of 25 mg/kg (30 G needle, max volume 200 μl) dissolved in Cremphore (2%) (Sigma-Aldrich): Ethanol (2%) in sterile water (96%). Mice received alternating IP injections twice a day with 12-hour intervals, over the course of two weeks during predominate intestinal inflammation. Winnie-sham treated mice received vehicle injections excluding APX3330 drugs. All mice were monitored, weighed and faecal pellets were collected over the course of treatment.
Distal colon tissues were harvested in oxygenated physiological saline, flushed of faecal content and cut along the mesenteric border. Tissues were pinned down with mucosal side upwards in a Slygard-lined petri dish and were briefly fixed with Zamboni's fixative (2% formaldehyde containing 0.2% picric acid) over night at 4° C. Zamboni's fixative was removed by a serial of washes (3×10 minutes) with dimethyl sulfoxide (DMSO) (Sigma-Aldrich, Sydney, Australia) followed by (3×10 minutes) with 1× phosphate buffered solution (PBS). Tissues were processed for cross sections wholemount longitudinal muscle-myenteric preparations (LMMP). For histological staining, β-tubulin III and α-Smooth muscle actin (SMA) labelling distal colon tissues were pinned and fixed as above without stretching and stored in 50:50 optimum cutting temperature (OCT) compound (Tissue Tek, CA, USA) and frozen in liquid nitrogen-cooled isopentane and OCT and stored at −80° C. until cryo-sectioned (20 μm) onto glass slides for immunohistochemistry (IHC). For immunolabeling glial fibrillary acidic protein (GFAP), microtubule associated protein-2 (MAP2), HMGB1 and APE1, the distal colon LMMPs were stretched to maximum capacity without tearing in Slygard-lined petri dishes and were subjected to fixation and washes as above. To expose the myenteric plexus, removal of mucosa, submucosa and circular muscle was performed prior to IHC.
Immunohistochemistry (IHC) was completed. Specimens were subjected to a one hour incubation at room temperature with 10% normalised donkey serum (NDS) (Merck Millipore, Australia) prior to labelling with primary antibodies (Table 2) in distal colon cross sections and LMMPs. Sections and preparation were washed with 1×PBS (3×10 minutes) and then briefly incubated with fluorophore-conjugated secondary antibodies (Table 2). All specimens were stained with 4′,6′-diamindino-2-pheylindole dihydrochloride (DAPI) to identify immunoreactive cells. Tissues were mounted on glass slides with fluorescent mounting medium (DAKO, North, Sydney, NSW, Australia Tissues for histology were cryo-sectioned at 10 μm, cleared and rehydrated in graded ethanol concentration. For standard hematoxylin and eosin stain (H&E) and Alcian blue stain, sections were immersed in histolene (3×4 minutes), 100% ethanol (2 minutes), 95% ethanol (2 minutes), 70% ethanol (2 minutes), rinsed in tap water (30 seconds), then in hematoxylin (Sigma-Aldrich) (1 minute) or Alcian blue (Sigma-Aldrich) (30 minutes), rinsed in tap water, immersed in Scott's tap water (1 minute) and eosin (Sigma-Aldrich) (5 minutes), rinsed in tap water, immersed in 100% ethanol (2×1 minute) and histolene (4 minutes) and finally mounted on glass slides with DPX mountant. A histological grading system evaluated gross morphological damage on constraints inclusive of mucosal flattening (0=normal, 3=severe flattening), manifestations of haemorrhagic sites (0=none, 3=frequent), damage or distortion to circular muscle (0=normal, 3=substantial thickening and disorganization of muscle layer) and loss to goblet cells (0=none, 3=depleted cells). All slides were coded, and analysis was performed blindly.
Confocal microscopy (Nikon Eclipse Ti multichannel confocal laser scanning system, Nikon, Japan) acquired immunolabelled sections. […]

Winnie mice [2] = assay: RNA sequencing of pooled distal colon; assay type: in vivo, mouse; details: n=6, relative to control C57BL/6 mice
Description: The small molecular APE1/Ref-1 antagonist; APX3330, was administered via IP injections in Winnie mice at a dose of 25 mg/kg (30 G needle, max volume 200 μl) dissolved in Cremphore (2%) (Sigma-Aldrich): Ethanol (2%) in sterile water (96%). Mice received alternating IP injections twice a day with 12-hour intervals, over the course of two weeks during predominate intestinal inflammation. Winnie-sham treated mice received vehicle injections excluding APX3330 drugs. All mice were monitored, weighed and faecal pellets were collected over the course of treatment. Control C57BL/6, Winnie-sham treated and Winnie-APX3330 fresh colon tissues were collected and snap frozen into liquid nitrogen. Samples were then sent to the Australian Genome Research Facility (AGRF) where next generation sequencing (NGS) was completed. NGS will be carried out by removing 2-3 μg of RNA per sample (≥100 ng/μl). The integrity of the RNA will be assessed by a Bioanalyzer as samples are to have a RNA integrity number (RIN) value of ≥8.0. The RNA samples went through a DNase treatment ready for library preparation. […] Samples underwent quality and adapter trimming, alignment, quantification and normalization. […] Final data obtained from AGRF were analysed and interpreted to determine APE1/Ref-1 associated pathways.

[3] = LMMP distal colon, mean±SEM, n=6
[4] = distal colon cross sections, mean±SEM, n=5

With `CCCCCCCCCC(=CC1=C(C)C(=O)C(OC)=C(OC)C1=O)C(=O)O` [APX3330] the goblet cell density (Winnie mice [1]; Alcian blue, distal colon mucosa, mean±SEM, n=4) was 46.5±4.3%, the histological grading (Winnie mice [1]; H&E / Alcian blue colon cross sections, mean±SEM, n=5) was 4.8±0.7 and the “APE1 intensity (immunoreactivity density) in the myenteric ganglia” value (Winnie mice [1]; LMMP colon, mean±SEM, n=4) was 6.0±1.4%. The “expression of Oxo-8dG-IR (oxidative DNA damage) in myenteric ganglia” value (Winnie mice [1]; [3]) was 2.0±0.9%, the “number of myenteric neurons IR for Oxo-8dG” value (Winnie mice [1]; [3]) was 0.9±0.7 and the “number of APE1-IR cells” value (Winnie mice [1]; LMMP, compared to control C57BL/6 and Winnie-sham (P<0.01)) was “significantly decreased”. For the same compound, the “gross morphology of the colon (H&E stain)” value (Winnie mice [1]; colon cross sections of treated Winnie mice) was “attenuate damage to the colon”, the “size of α-SMA-immunoreactive smooth muscle cells to nuclear size” value (Winnie mice [1]; distal colon cross sections, circular muscle, mean±SEM, n=5) was 75.7±6.4% and the “number of α-SMA-IR smooth muscle cells within the circular muscle” value (Winnie mice [1]; [4]) was 45.2±3.1. The “β-tubulin (III)-IR nerve fibre density” value (Winnie mice [1]; [4]) was 13.3±0.8, the “proportional number of MAP2-IR myenteric neurons” value (Winnie mice [1]; myenteric ganglia, LMMP distal colon, mean±SEM, n=7) was 31.9±2.2% and the “number of cells with HMGB1 translocation into the cytosol” value (Winnie mice [1]; myenteric ganglia, LMMP, mean±SEM, n=4) was 0.9±0.3. The “GFAP-IR glial cell density relative to ganglion area” value (Winnie mice [1]; myenteric plexus, LMMP distal colon, mean±SEM, n=4) was 64.2±8.8% and the “down regulation (fold change) of RNA expression of S100a8, Khdc1a, Lrg1, Retnlb, Nos2, Ido1 and REG3B” value (Winnie mice [2]) was over 2.
